The source made the active and inactive calls. The rule behind the calls is not given here.
Columns and labels:
HT-29 [1] = test: Cell cycle arrest in human HT29 cells assessed as cell accumulation at G1 phase at 0.5 uM incubated for 24 hrs by propidium iodide staining based flow cytometry (reference value: 70.33 %); format: functional
A549 = test: cells; conditions: Homo sapiens, A549, 48 h
HT-29 [2] = test: Induction of apoptosis in human HT-29 cells assessed as necrotic cells at 0.5 uM measured after 24 hrs by Annexin V-FITC/propidium iodide staining based flow cytometry (reference value: 0.7 %); format: functional
HT-29 [3] = test: Induction of apoptosis in human HT-29 cells assessed as early apoptotic cells at 0.5 uM measured after 24 hrs by Annexin V-FITC/propidium iodide staining based flow cytometry (reference value: 1.1 %); format: functional
HT-29 [4] = test: Cell cycle arrest in human HT29 cells assessed as cell accumulation at S phase at 1 uM incubated for 24 hrs by propidium iodide staining based flow cytometry (reference value: 17.15 %); format: functional
K562 [5] = test: Antiproliferative activity against drug resistant human K562 cells incubated for 48 hrs by MTT assay; format: functional, cell-based; conditions: K562, 48 h
HT-29 [6] = test: Antiproliferative activity against human HT29 cells incubated for 48 hrs by MTT assay; format: functional, cell-based; conditions: HT-29, 48 h
HT-29 [7] = test: Induction of apoptosis in human HT-29 cells assessed as necrotic cells at 1 uM measured after 24 hrs by Annexin V-FITC/propidium iodide staining based flow cytometry (reference value: 0.7 %); format: functional
HT-29 [8] = test: Induction of apoptosis in human HT-29 cells assessed as late apoptotic cells at 1 uM measured after 24 hrs by Annexin V-FITC/propidium iodide staining based flow cytometry (reference value: 0.5 %); format: functional
MDA-MB-231 = test: cells; conditions: Homo sapiens, MDA-MB-231, 48 h
HT-29 [9] = test: Induction of apoptosis in human HT-29 cells assessed as early apoptotic cells at 1 uM measured after 24 hrs by Annexin V-FITC/propidium iodide staining based flow cytometry (reference value: 1.1 %); format: functional
HT-29 [10] = test: Cell cycle arrest in human HT29 cells assessed as cell accumulation at G1 phase at 1 uM incubated for 24 hrs by propidium iodide staining based flow cytometry (reference value: 70.33 %); format: functional
HT-29 [11] = test: Cell cycle arrest in human HT29 cells assessed as cell accumulation at G2 phase at […] incubated for 24 hrs by propidium iodide staining based flow cytometry (reference value: 12.53 %); format: functional; conditions: dose 0.25 µM
HT-29 [12] = test: Cell cycle arrest in human HT29 cells assessed as cell accumulation at S phase at […] incubated for 24 hrs by propidium iodide staining based flow cytometry (reference value: 17.15 %); format: functional; conditions: dose 0.25 µM
[13] = Antiproliferative activity against human LO2 cells incubated for 48 hrs by MTT assay; format: cell-based, L02
MCF7 [14] = test: cells; conditions: Homo sapiens, MCF7, 48 h
K562 [15] = test: cells; conditions: Homo sapiens, K562, 48 h
Description: Antiproliferative activity against human K562 cells incubated for 48 hrs by MTT assay

HT-29 [16] = test: Induction of apoptosis in human HT-29 cells assessed as late apoptotic cells at 0.5 uM measured after 24 hrs by Annexin V-FITC/propidium iodide staining based flow cytometry (reference value: 0.5 %); format: functional
HCT-116 = test: cells; conditions: Homo sapiens, HCT-116, 48 h
Description: Antiproliferative activity against human HCT116 cells incubated for 48 hrs by MTT assay

HT-29 [17] = test: Induction of apoptosis in human HT-29 cells assessed as late apoptotic cells at […] measured after 24 hrs by Annexin V-FITC/propidium iodide staining based flow cytometry (reference value: 0.5 %); format: functional; conditions: dose 0.25 µM
HT-29 [18] = test: Cell cycle arrest in human HT29 cells assessed as cell accumulation at G2 phase at 1 uM incubated for 24 hrs by propidium iodide staining based flow cytometry (reference value: 12.53 %); format: functional
HT-29 [19] = test: Cell cycle arrest in human HT29 cells assessed as cell accumulation at S phase at 0.5 uM incubated for 24 hrs by propidium iodide staining based flow cytometry (reference value: 17.15 %); format: functional
HT-29 [20] = test: Cell cycle arrest in human HT29 cells assessed as cell accumulation at G2 phase at 0.5 uM incubated for 24 hrs by propidium iodide staining based flow cytometry (reference value: 12.53 %); format: functional
HT-29 [21] = test: Induction of apoptosis in human HT-29 cells assessed as viable cells at […] measured after 24 hrs by Annexin V-FITC/propidium iodide staining based flow cytometry (reference value: 97.7 %); format: functional; conditions: dose 0.25 µM, read-out: Activity
HT-29 [22] = test: Cell cycle arrest in human HT29 cells assessed as cell accumulation at G1 phase at […] incubated for 24 hrs by propidium iodide staining based flow cytometry (reference value: 70.33 %); format: functional; conditions: dose 0.25 µM
HT-29 [23] = test: Induction of apoptosis in human HT-29 cells assessed as necrotic cells at […] measured after 24 hrs by Annexin V-FITC/propidium iodide staining based flow cytometry (reference value: 0.7 %); format: functional; conditions: dose 0.25 µM
HT-29 [24] = test: Induction of apoptosis in human HT-29 cells assessed as viable cells at 1 uM measured after 24 hrs by Annexin V-FITC/propidium iodide staining based flow cytometry (reference value: 97.7 %); format: functional; conditions: read-out: Activity
HT-29 [25] = test: Induction of apoptosis in human HT-29 cells assessed as viable cells at 0.5 uM measured after 24 hrs by Annexin V-FITC/propidium iodide staining based flow cytometry (reference value: 97.7 %); format: functional; conditions: read-out: Activity
HepG2 = test: Antiproliferative activity against human HepG2 cells incubated for 48 hrs by MTT assay; format: functional, cell-based; conditions: HepG2, 48 h
[26] = Antiproliferative activity against human HEK293T cells incubated for 48 hrs by MTT assay; format: cell-based, HEK-293T
HT-29 [27] = test: Induction of apoptosis in human HT-29 cells assessed as early apoptotic cells at […] measured after 24 hrs by Annexin V-FITC/propidium iodide staining based flow cytometry (reference value: 1.1 %); format: functional; conditions: dose 0.25 µM
MCF7 [28] = test: cells; conditions: Homo sapiens, MCF7, 48 h; remark: listed apart in the source
Description: Antiproliferative activity against drug-resistant human MCF7 cells incubated for 48 hrs by MTT assay

HT-29 [29] = test: Cell cycle arrest in human HT29 cells assessed as cell accumulation at G1 phase at […] incubated for 24 hrs by propidium iodide staining based flow cytometry (reference value: 69.19 %); format: functional; conditions: dose 0.25 µM
HT-29 [30] = test: Induction of apoptosis in human HT-29 cells assessed as early apoptotic cells at […] measured after 24 hrs by Annexin V-FITC/propidium iodide staining based flow cytometry (reference value: 1.6 %); format: functional; conditions: dose 0.25 µM
HT-29 [31] = test: Induction of apoptosis in human HT-29 cells assessed as necrotic cells at 1 uM measured after 24 hrs by Annexin V-FITC/propidium iodide staining based flow cytometry (reference value: 0.1 %); format: functional
HT-29 [32] = test: Induction of apoptosis in human HT-29 cells assessed as necrotic cells at […] measured after 24 hrs by Annexin V-FITC/propidium iodide staining based flow cytometry (reference value: 0.1 %); format: functional; conditions: dose 0.25 µM
HT-29 [33] = test: Induction of apoptosis in human HT-29 cells assessed as late apoptotic cells at […] measured after 24 hrs by Annexin V-FITC/propidium iodide staining based flow cytometry (reference value: 0.0 %); format: functional; conditions: dose 0.25 µM
HT-29 [34] = test: Induction of apoptosis in human HT-29 cells assessed as early apoptotic cells at 0.5 uM measured after 24 hrs by Annexin V-FITC/propidium iodide staining based flow cytometry (reference value: 1.6 %); format: functional
HT-29 [35] = test: Induction of microtubule disruption in human HT-29 cells at 0.5 uM incubated for 24 hrs by DAPI staining based confocal fluorescence microscopic analysis; format: cell-based
HT-29 [36] = test: Induction of apoptosis in human HT-29 cells assessed as late apoptotic cells at 1 uM measured after 24 hrs by Annexin V-FITC/propidium iodide staining based flow cytometry (reference value: 0.0 %); format: functional
HT-29 [37] = test: Cell cycle arrest in human HT29 cells assessed as cell accumulation at G1 phase at 0.5 uM incubated for 24 hrs by propidium iodide staining based flow cytometry (reference value: 69.19 %); format: functional
HT-29 [38] = test: Induction of apoptosis in human HT-29 cells assessed as necrotic cells at 0.5 uM measured after 24 hrs by Annexin V-FITC/propidium iodide staining based flow cytometry (reference value: 0.1 %); format: functional
HT-29 [39] = test: Induction of apoptosis in human HT-29 cells assessed as early apoptotic cells at 1 uM measured after 24 hrs by Annexin V-FITC/propidium iodide staining based flow cytometry (reference value: 1.6 %); format: functional
HT-29 [40] = test: Induction of apoptosis in human HT-29 cells assessed as viable cells at 0.5 uM measured after 24 hrs by Annexin V-FITC/propidium iodide staining based flow cytometry (reference value: 98.3 %); format: functional; conditions: read-out: Activity
HT-29 [41] = test: Cell cycle arrest in human HT29 cells assessed as cell accumulation at S phase at 0.5 uM incubated for 24 hrs by propidium iodide staining based flow cytometry (reference value: […] %); format: functional
HT-29 [42] = test: Cell cycle arrest in human HT29 cells assessed as cell accumulation at G2 phase at […] incubated for 24 hrs by propidium iodide staining based flow cytometry (reference value: […]); format: functional; conditions: dose 0.25 µM
HT-29 [43] = test: Cell cycle arrest in human HT29 cells assessed as cell accumulation at G2 phase at 0.5 uM incubated for 24 hrs by propidium iodide staining based flow cytometry (reference value: […]); format: functional
HT-29 [44] = test: Cell cycle arrest in human HT29 cells assessed as cell accumulation at G1 phase at 1 uM incubated for 24 hrs by propidium iodide staining based flow cytometry (reference value: 69.19 %); format: functional
HT-29 [45] = test: Induction of apoptosis in human HT-29 cells assessed as viable cells at 1 uM measured after 24 hrs by Annexin V-FITC/propidium iodide staining based flow cytometry (reference value: 98.3 %); format: functional; conditions: read-out: Activity
HT-29 [46] = test: Cell cycle arrest in human HT29 cells assessed as cell accumulation at S phase at […] incubated for 24 hrs by propidium iodide staining based flow cytometry (reference value: […] %); format: functional; conditions: dose 0.25 µM
HT-29 [47] = test: Cell cycle arrest in human HT29 cells assessed as cell accumulation at G2 phase at 1 uM incubated for 24 hrs by propidium iodide staining based flow cytometry (reference value: […]); format: functional
[48] = Inhibition of tubulin polymerization (unknown origin) measured every 2 mins for 60 mins by spectrophotometric method; set-up: species or system Homo sapiens
HT-29 [49] = test: Cell cycle arrest in human HT29 cells assessed as cell accumulation at S phase at 1 uM incubated for 24 hrs by propidium iodide staining based flow cytometry (reference value: […] %); format: functional
HT-29 [50] = test: Induction of apoptosis in human HT-29 cells assessed as late apoptotic cells at 0.5 uM measured after 24 hrs by Annexin V-FITC/propidium iodide staining based flow cytometry (reference value: 0.0 %); format: functional
HT-29 [51] = test: Induction of apoptosis in human HT-29 cells assessed as viable cells at […] measured after 24 hrs by Annexin V-FITC/propidium iodide staining based flow cytometry (reference value: 98.3 %); format: functional; conditions: dose 0.25 µM, read-out: Activity

CC(C)=CC[C@@H](O)C1=CC(=O)c2c(O)ccc(O)c2C1=O [SHIKONIN]
Activity (HT-29 [1]): 50.02%
IC50 (A549): 10.2 µM
Activity (HT-29 [2]): 0.7%
Activity (HT-29 [3]): 11.9%
Activity (HT-29 [4]): 43.57%
IC50 (K562 [5]): 121 µM
IC50 (HT-29 [6]): 2800 nM
Activity (HT-29 [7]): 0.6%
Activity (HT-29 [8]): 3.2%
IC50 (MDA-MB-231): 2770 nM
Activity (HT-29 [9]): 19.5%
Activity (HT-29 [10]): 32.11%
Activity (HT-29 [11]): 19.5%
Activity (HT-29 [12]): 28.1%
CC50 at 48 h [13]: 11.8 µM
IC50 (MCF7 [14]): 5400 nM
IC50 (K562 [15]): 20.3 µM
Activity (HT-29 [16]): 0.4%
IC50 (HCT-116): 2470 nM
Activity (HT-29 [17]): 0.7%
Activity (HT-29 [18]): 24.51%
Activity (HT-29 [19]): 27.08%
Activity (HT-29 [20]): 22.9%
viability at […] (HT-29 [21]): 91%
Activity (HT-29 [22]): 52.4%
Activity (HT-29 [23]): 1.2%
viability at 1 µM (HT-29 [24]): 76.7%
viability at 0.5 µM (HT-29 [25]): 87%
IC50 (HepG2): 2920 nM
CC50 at 48 h [26]: 7 µM
Activity (HT-29 [27]): 7.1%
IC50 (MCF7 [28]): 23.4 µM

COc1cc2c(c(OC)c1OC)-c1ccc(OC)c(=O)cc1[C@@H](NC(C)=O)CC2 [COLCHICINE]
IC50 (A549): 1.17 µM
Activity (HT-29 [29]): 57.62%
IC50 (K562 [5]): 6.59 µM
Activity (HT-29 [30]): 7.6%
IC50 (HT-29 [6]): 1810 nM
IC50 (MDA-MB-231): 2940 nM
Activity (HT-29 [31]): 0.4%
Activity (HT-29 [32]): 0.3%
Activity (HT-29 [33]): 5.2%
Activity (HT-29 [34]): 12.1%
Activity (HT-29 [35]): Active
CC50 at 48 h [13]: 9.18 µM
IC50 (MCF7 [14]): 110 nM
Activity (HT-29 [36]): 16.8%
Activity (HT-29 [37]): 27.11%
IC50 (K562 [15]): 0.44 µM
IC50 (HCT-116): 2130 nM
Activity (HT-29 [38]): 1.3%
Activity (HT-29 [39]): 15.8%
viability at 0.5 µM (HT-29 [40]): 76.1%
Activity (HT-29 [41]): 54.64%
Activity (HT-29 [42]): 17.73%
Activity (HT-29 [43]): 18.25%
Activity (HT-29 [44]): 23.93%
viability at 1 µM (HT-29 [45]): 67.1%
Activity (HT-29 [46]): 24.65%
Activity (HT-29 [47]): 40.41%
IC50 [48]: 2110 nM
Activity (HT-29 [49]): 35.66%
Activity (HT-29 [50]): 10.5%
IC50 (HepG2): 1470 nM
viability at […] (HT-29 [51]): 87%
CC50 at 48 h [26]: 8.43 µM
IC50 (MCF7 [28]): 0.52 µM

— ChEMBL document CHEMBL4765259, “Synthesis and biological evaluation of novel shikonin-benzo[b]furan derivatives as tubulin polymerization inhibitors targeting the colchicine binding site” (Eur J Med Chem, 2020)
